Measurements reported in publication PMC4650693, “Characterization of two-step deglycosylation via oxidation by glycoside oxidoreductase and defining their subfamily” (Scientific Reports, 2015).

Molecular target: T1, FAD-GO from Rhizobium sp. GIN611 (Rhizobium sp. GIN611, UniProt G9ILI7)
T1 construct: recombinant, expressed in E. coli Rosetta-gami 2 (DE3, pLysS)
T1 sequence (G9ILI7 1-561): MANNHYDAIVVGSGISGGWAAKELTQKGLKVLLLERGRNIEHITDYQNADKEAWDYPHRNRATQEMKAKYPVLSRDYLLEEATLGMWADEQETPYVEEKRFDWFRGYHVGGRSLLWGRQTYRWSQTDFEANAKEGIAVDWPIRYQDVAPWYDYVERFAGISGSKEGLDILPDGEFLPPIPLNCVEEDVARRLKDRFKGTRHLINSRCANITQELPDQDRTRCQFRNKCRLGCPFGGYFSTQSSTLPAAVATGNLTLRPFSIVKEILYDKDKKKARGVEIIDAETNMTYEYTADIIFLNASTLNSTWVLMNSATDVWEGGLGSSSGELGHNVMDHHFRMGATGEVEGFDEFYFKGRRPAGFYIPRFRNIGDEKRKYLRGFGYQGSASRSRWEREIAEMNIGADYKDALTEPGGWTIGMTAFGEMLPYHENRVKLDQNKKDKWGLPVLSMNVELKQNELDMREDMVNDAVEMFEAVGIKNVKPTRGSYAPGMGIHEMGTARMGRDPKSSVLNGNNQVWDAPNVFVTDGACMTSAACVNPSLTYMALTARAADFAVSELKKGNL
Experiment: HPLC of oxidation and deglycosylation products
Format: biochemical
Conditions: C3-OH of glucose oxidised; FAD enzyme, O2
Description: HPLC of oxidation and deglycosylation products on FAD-GO from Rhizobium sp.

CC(C)=CCC[C@](C)(O[C@@H]1O[C@H](CO)[C@@H](O)[C@H](O)[C@H]1O)[C@H]1CC[C@]2(C)[C@@H]1[C@H](O)C[C@@H]1[C@@]3(C)CC[C@H](O)C(C)(C)[C@@H]3CC[C@]12C [CK, Compound K]
HPLC of oxidation and deglycosylation products: HPLC chromatogram of enzyme reactions using wild type, H493F mutant or H493A mutant enzyme
